# Experimental data taken from ChEMBL document CHEMBL1201862, “PubChem BioAssay data set” (2004).
#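 Where inhibition never reached the appropriate level, the endpoint shown equals the highest concentration tested. Otherwise, values were interpolated linearly from a five-concentration, 48-hour dose response in 96-well plates. Here, GI50 denotes the concentration required for 50% inhibition of growth.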 The source made the active and inactive calls. Rule as the data show it: active = GI50 up to about 1.1 µM and inactive = higher.
# Assays:
# Experiment in all cases: DTP human tumour cell line panel, 48 h
# [1] = system: NCI-H23
# [2] = system: ACHN
# [3] = system: RPMI-8226
# [4] = system: HCT-15
# [5] = system: NCI-H460
# [6] = system: A498
# [7] = system: 786-0
# [8] = system: HCC 2998
# [9] = system: NCI-H226
# [10] = system: UO-31
# [11] = system: SR
# [12] = system: UACC-62
# [13] = system: MDA-MB-435
# [14] = system: TK-10
# [15] = system: OVCAR-8
# [16] = system: U-251
# [17] = system: SK-MEL-5
# [18] = system: MOLT-4
# [19] = system: MCF7
# [20] = system: SN12C
Structure (SMILES),GI50 [1],GI50 [2],GI50 [3],GI50 [4],GI50 [5],GI50 [6],GI50 [7],GI50 [8],GI50 [9],GI50 [10],GI50 [11],GI50 [12],GI50 [13],GI50 [14],GI50 [15],GI50 [16],GI50 [17],GI50 [18],GI50 [19],GI50 [20]
CCOC(=O)/C=C\C(C#N)(C#N)/N=C/c1ccsc1,9.68 µM (inactive),2.91 µM (inactive),1.33 µM (inactive),2.96 µM,20.5 µM (inactive),19 µM (inactive),2.24 µM (inactive),16 µM (inactive),14.8 µM (inactive),2.7 µM (inactive),1.04 µM (active),17 µM (inactive),2.39 µM (inactive),2.1 µM (inactive),3.86 µM (inactive),17.1 µM (inactive),20 µM (inactive),1.21 µM (inactive),2.51 µM (inactive),18.2 µM (inactive)
Cc1c(C)c2c(c(N)c1C#N)C(=O)N(Cc1ccc(S(N)(=O)=O)cc1)C2=O,18.9 µM (inactive),> 42.6 µM (inactive),> 100 µM (inactive),> 72.9 µM,> 100 µM (inactive),27.9 µM (inactive),16.8 µM (inactive),> 100 µM (inactive),> 30.5 µM (inactive),97.9 µM (inactive),> 100 µM (inactive),> 100 µM (inactive),> 100 µM (inactive),22.4 µM (inactive),4.65 µM (inactive),7.18 µM (inactive),> 100 µM (inactive),> 100 µM (inactive),> 75 µM (inactive),> 53.8 µM (inactive)
O=C1C=C(Nc2ccccc2C(=O)CC(=O)C(=O)Nc2cccc(C(F)(F)F)c2)c2ccccc2C1=O,13.6 µM (inactive),28.3 µM (inactive),17.6 µM (inactive),19.5 µM,27.7 µM (inactive),> 100 µM (inactive),25.8 µM (inactive),> 41.8 µM (inactive),61.5 µM (inactive),31.2 µM (inactive),8.85 µM (inactive),15.8 µM (inactive),7.5 µM (inactive),> 96.4 µM (inactive),17.3 µM (inactive),31.3 µM (inactive),15.8 µM (inactive),4.83 µM (inactive),15.2 µM (inactive),17.1 µM (inactive)
Cc1ccccc1NC(=S)N/N=C1\C(=O)Nc2ccccc21,> 100 µM (inactive),> 100 µM (inactive),> 100 µM (inactive),> 100 µM,> 100 µM (inactive),86.3 µM (inactive),> 100 µM (inactive),> 100 µM (inactive),> 100 µM (inactive),> 100 µM (inactive),70.6 µM (inactive),> 100 µM (inactive),> 100 µM (inactive),> 100 µM (inactive),> 100 µM (inactive),> 100 µM (inactive),> 100 µM (inactive),> 100 µM (inactive),> 100 µM (inactive),> 100 µM (inactive)
N#CC1C=Cc2ccccc2N1C(=O)Oc1ccccc1 (stereo not given),58.9 µM (inactive),50.2 µM (inactive),21.3 µM (inactive),42.1 µM,41.4 µM (inactive),33.1 µM (inactive),56.5 µM (inactive),40.1 µM (inactive),42.5 µM (inactive),41.7 µM (inactive),33.8 µM (inactive),52.7 µM (inactive),23.7 µM (inactive),44.8 µM (inactive),48.8 µM (inactive),44.1 µM (inactive),46.5 µM (inactive),28.2 µM (inactive),41.8 µM (inactive),45.9 µM (inactive)
COC1=CC(=O)c2c(c(-c3nc(C)cs3)cn2C)C1=O,2.25 µM (inactive),4.73 µM (inactive),2.52 µM (inactive),1.28 µM,1.25 µM (inactive),5.82 µM (inactive),18.1 µM (inactive),4.28 µM (inactive),16.7 µM (inactive),4.53 µM (inactive),4.95 µM (inactive),2.99 µM (inactive),0.409 µM (active),10.8 µM (inactive),4.56 µM (inactive),4.67 µM (inactive),1.2 µM (inactive),15.2 µM (inactive),2.62 µM (inactive),5.79 µM (inactive)
